Values of other authors, collected in paper PMC6314896 (Chembiochem : a European journal of chemical biology, 2018).

Test system: trypsin
Conditions: both toxins under the same conditions

Row | Substance | stability to trypsin (in words)
1 | ProTx-I | degraded rapidly
2 | ProTx-II | completely stable
